Data on two molecules can be found in PMC6123711, “Conformational signatures in β-arrestin2 reveal natural biased agonism at a G-protein-coupled receptor” (Communications Biology, 2018).

The test system of experiment [1] is β-arrestin2–Galr2 interaction (Galr2). In words: β-Arrestin2 recruitment using NanoBit technology. The following applies: for Log(τ/KA), β-Arrestin2: HEK293 cells, luminescence at 5 min after agonist, operational model (Eq. 2). The experiment is classed as cell-based, human. The source says:
The β-arrestin recruitment assays were developed based on a structural complementation assay using NanoBit technology. Briefly, NanoBit technology is a system that basically consists of Nano luciferase (Nluc), which is a small protein that catalyzes a bright luminescent reaction. To create a complementation system, Nluc was separated into two subunits that individually produce very little enzymatic activity. […] Because of this low affinity for each other, these two fragments can bind when they are in close proximity. The interaction between the LgBit and the SmBit can be driven by the interactions of the fusion partners, allowing them to study protein–protein interaction in live cells. As the interaction is reversible, the association and dissociation can be monitored. There is no lag time in the loss of luminescence, and so the immediate detection allows for accurate assessment of temporal dynamics. […] To accurately monitor β-arrestin recruitment, four plasmid combinations between LgBit and SmBit with the fusion partners Galr2 and β-arrestins were screened. The plasmid combination with the highest luminescence signal was chosen for further studies (Fig. 2a, Supplementary Fig. 1). Using data points at 5 min after ligand stimulation, we obtained dose–response curves that corresponded to β-arrestin1/2 recruitment (Fig. 2d, e, Supplementary Fig. 2).
Fig. 2 The effect of different endogenous ligands in β-arrestin1/2 recruitment. a Schematic representation of the structural complementation assay used to monitor β-arrestin1/2–Galr2 interactions. Kinetic traces of β-arrestin1 (b) and β-arrestin2 (c) recruitment after Galr2 activation with 1 μM of three different agonists. Dose–response curves for recruitment of β-arrestin1 (d), and β-arrestin2 (e). Luminescence signal intensity obtained at 5 min after agonist stimulation was measured. […] The results are expressed as mean ± s.e.m. of three experiments performed in triplicate; each triplicate was averaged before calculating the s.e.m. The arrows indicate the time at which the cells were treated with the different ligands
(§1) Quantification of bias between each pathway was performed using Galanin as a reference ligand. All incubations for the different signaling assays were performed in serum-free medium to prevent peptide degradation.
HEK293 cells were obtained from the American Type Culture Collection (ATCC, CRL-1573; Manassas, VA, USA). […] After a 10-min incubation, 25 μl substrate (furimazine) was added and once every minute subsequent luminescence measurements were taken for 10 min for signal stabilization. A total of 10 μl ligand was then added to each well and luminescence measurements were recorded immediately and once every minute for 1 h (Synergy 2 Multi-Mode Microplate Reader BioTek, Winooski, VT, USA).

The test system of experiment [2] is Galr2. In words: SRE-Luc gene reporter assay. In kind it is cell-based, human. The following applies: for Log(τ/KA), SRE-Luc: HEK293 cells, Galr2, 6 h ligand treatment, operational model (Eq. 2).
Source text: Galr2 is primarily coupled to the Gαq-protein which activates the phospholipase C/protein kinase C pathway for inositol phosphate production. We measured G-protein activation in HEK293 cells transiently expressing Galr2, using the serum response element-luciferase (SRE-Luc) gene reporter assay[10],[37] and for a more specific monitoring of Gαq-protein activity we also measured total inositol phosphate production. […] However, some differences were observed between SRE-Luc activity and total inositol phosphate production in the rank order of potency of the tested ligands. […] Phosphorylation of extracellular signal-regulated protein kinases 1 and 2 (pErk1/2) is either G-protein or β-arrestin dependent. To distinguish Gαq-protein- and β-arrestin1/2-dependent Erk1/2 signaling, we examined ligand-stimulated Erk1/2 phosphorylation in three different HEK293 cell lines, wild type, Gαq/11-knockout, and β-arrestin1/2-knockout cells. All three ligands induced high levels of Erk1/2 phosphorylation dose-dependently in wild-type HEK293 cells.
Fig. 5 Galr2 agonists display different Gαq-protein-dependent signaling and pErk1/2. The ability of increasing concentrations of agonists to induce a SRE-Luc activity and b total inositol phosphate production. c Representative western blot showing ligand-induced phosphorylation of Erk1/2 from wild-type (HEK293 WT), Gαq/11-, and β-arrestin1/2-knockout HEK293 cells expressing Galr2 (original blots are presented in Supplementary Figure 4). pErk1/2 and total Erk levels were determined at 5 min after stimulation of different concentrations of three ligands. Western blot band intensities corresponding to each concentration were quantified using Image studio ^TM Software. […] Data are the mean ± s.e.m. values of two independent experiments
as §1
One day before transfection, cells were seeded in 48-well plates at a density of 2.5 × 10^4 cells per well. A mixture containing 75 ng SRE-Luc reporter construct, 75 ng expression plasmid, and 0.3 μl Lipofectamine 2000 (Invitrogen) was prepared and added to each well, according to the manufacturer’s instructions. The cells were then maintained in serum-free DMEM for 16–18 h before exposure to the ligands. Approximately 48 h after transfection, the cells were treated with the respective ligands for 6 h. The cells were then lysed using 100 μl lysis buffer. The luciferase activity in 50 μl cell extract was determined using a luciferase assay system, following the standard protocol for the Synergy 2 Multi-Mode Microplate Reader Biotek.

Experiment [3] relates to Galr2. To be noted: cited from earlier work. The source says:
(§2) G-protein-coupled receptors (GPCRs) are the largest family of cell surface receptors that communicate extracellular stimuli to the cell interior[1]. Biased ligands are of particular interest because they offer the possibility to design a novel class of therapeutic agents. In some GPCRs, biased ligands that preferentially activate G-protein-dependent signaling have therapeutic potential. […] Most descriptions of biased ag ...

The test system of experiment [4] is galanin receptor 3 (Galr3). The following applies: cited from earlier work.
Source text: as §2

Setting [5] is: mean ± s.e.m. of three experiments in triplicate.
Where [6] appears, read: normalized to Galanin (reference agonist), in parenthesis, mean ± s.e.m. of three experiments in triplicate.

With Galanin [reference compound], the “Log(τ/KA), β-Arrestin2” value in experiment [1] (setting [5]) came to 7.20 ± 0.02. In addition, in experiment [1] (setting [6]), the “ΔLog(τ/KA), β-Arrestin2” value came out at 0.00 ± 0.02. For the same molecule, the “Log(τ/KA), SRE-Luc” value in the experiment with Galr2 [2] (setting [5]) amounted to 4.80±0.007. Besides, in the experiment with Galr2 [2] (setting [6]), the “ΔLog(τ/KA), SRE-Luc” value is listed as 0.00 ± 0.007. Besides, the “affinity toward Galr2” value in the experiment with Galr2 [3] is “high affinities”. Besides, in experiment [4], the “affinity toward Galr3” value is recorded as “low affinity”.

B1: Spexin (peptide, UniProt Q9BT56 27-116, looked up)
Spexin: APQRLLERRNWTPQAMLYLKGAQGRRFISDQSRRKDLSDRPLPERRSPNPQLLTIPEAATILLASLQKSPEDEEKNFDQTRFLEDSLLNW
modifications: Spexin
notes: endogenous peptide ligand of Galr2 and Galr3; synthesized by AnyGen
Take B1: the “Log(τ/KA), β-Arrestin2” value in experiment [1] (setting [5]) is 6.40 ± 0.03. In addition, the “agonism in β-arrestin2 recruitment” value in experiment [1] (dose–response, data at 5 min after ligand stimulation, compared with Galanin) is recorded as “partial agonists”. The “efficacy in SRE-Luc assay” value in the experiment on Galr2 [2] (HEK293 cells transiently expressing Galr2) was “substantially higher efficacy”. For the same molecule, the “Log(τ/KA), SRE-Luc” value in the experiment with Galr2 [2] (setting [5]) was 4.95±0.04. Moreover, the “activation of Galr2” value with Galr2 [3] is “activates Galr2 and Galr3 with high affinities”. Further, the “activation of Galr3” value in experiment [4] was “activates Galr2 and Galr3 with high affinities”.
